Data taken from patent US10689354B2, “Aminoazole derivative” (Teijin Pharma Limited, priority 2015, dated 2020).

What was measured:
[1] = target: T1, androgen receptor (AR-LBD) (Rattus norvegicus, UniProt P15207); test: Evaluation of androgen receptor affinity (PolarScreen Androgen Receptor Competitor Assay Kit, Red; fluorescence polarization); details: 22° C. for 5 hours, relative to binding rate of 1 μM DHT, read-out: AR affinity (pEC50) (converted)
T1 construct: 5 μL of 2×AR-LBD/Fluoromone AL Red Complex contained in the kit; purchased Invitrogen
T1 sequence (P15207 651-882 limits assumed): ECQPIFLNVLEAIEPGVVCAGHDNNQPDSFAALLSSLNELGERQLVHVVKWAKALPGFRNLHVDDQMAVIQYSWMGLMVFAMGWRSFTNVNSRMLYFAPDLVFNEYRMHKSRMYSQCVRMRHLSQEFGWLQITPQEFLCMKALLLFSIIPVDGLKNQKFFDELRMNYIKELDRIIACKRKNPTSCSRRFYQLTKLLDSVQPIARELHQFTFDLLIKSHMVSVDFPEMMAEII
Procedure, shortened: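 pEC50 values reflect tracer displacement from AR-LBD (Fluoromone AL Red complex) measured by fluorescence polarization after 5 h at 22° C, normalized to 1 μM DHT and fitted with a 4-parameter model.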

human androgen receptor = target: T2, human androgen receptor (Homo sapiens, UniProt P10275); test: Reporter assay of an androgen receptor responsive sequence (luciferase, transiently transfected HEK293 cells); format: cell-based; details: 24 hours incubation, relative to activity of 100 nM DHT, read-out: AR transcriptive activity (pEC50) (converted)
T2 construct: expressed in transfected cells; host or cells: HEK293
T2 sequence (P10275 1-920): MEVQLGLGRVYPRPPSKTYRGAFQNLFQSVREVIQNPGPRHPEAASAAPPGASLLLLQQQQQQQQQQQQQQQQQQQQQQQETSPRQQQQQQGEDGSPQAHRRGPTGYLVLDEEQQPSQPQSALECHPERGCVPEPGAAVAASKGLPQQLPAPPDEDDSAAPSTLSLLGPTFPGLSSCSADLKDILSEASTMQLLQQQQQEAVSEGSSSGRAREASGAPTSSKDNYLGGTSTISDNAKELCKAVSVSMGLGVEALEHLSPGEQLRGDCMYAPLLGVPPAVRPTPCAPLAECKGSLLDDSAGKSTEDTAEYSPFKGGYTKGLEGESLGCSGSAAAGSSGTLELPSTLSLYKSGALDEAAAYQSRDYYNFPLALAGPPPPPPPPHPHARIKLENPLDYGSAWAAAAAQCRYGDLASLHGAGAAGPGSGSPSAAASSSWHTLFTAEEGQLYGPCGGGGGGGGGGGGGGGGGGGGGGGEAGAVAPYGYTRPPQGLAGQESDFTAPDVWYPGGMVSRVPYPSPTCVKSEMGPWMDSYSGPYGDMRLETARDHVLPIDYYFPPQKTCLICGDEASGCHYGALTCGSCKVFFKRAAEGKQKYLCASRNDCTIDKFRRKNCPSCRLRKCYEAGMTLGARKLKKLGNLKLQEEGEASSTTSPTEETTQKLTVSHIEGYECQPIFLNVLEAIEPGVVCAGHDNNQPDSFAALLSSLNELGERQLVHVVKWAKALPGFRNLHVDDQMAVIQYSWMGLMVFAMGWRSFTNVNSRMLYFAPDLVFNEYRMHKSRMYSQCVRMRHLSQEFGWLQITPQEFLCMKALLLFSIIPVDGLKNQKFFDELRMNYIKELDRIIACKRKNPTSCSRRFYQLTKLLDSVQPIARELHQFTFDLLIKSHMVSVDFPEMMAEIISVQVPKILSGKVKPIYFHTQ
Procedure, shortened: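 HEK293 cells transiently transfected for 3 h with ARE-firefly luciferase, full-length human AR and TK-Renilla plasmids, then exposed to compound for 24 h at 37 °C in 5% charcoal-treated FBS/DMEM. Dual-Glo luminescence read; pEC50 from 4-parameter fit relative to 100 nM DHT.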

| EC50 [1] | EC50 (human androgen receptor) | SMILES |
| --- | --- | --- |
| 158 nM | > 10000 nM | COCCCS(=O)(=O)NC(=O)c1nc(N(CCc2ccc(OC(F)(F)F)cc2)Cc2ccc(Cl)cn2)oc1C [Compound 564, 2-[(5-chloro-2-pyridyl)methyl-[2-[4-(trifluoromethoxy)phenyl]ethyl]amino]-N-(3-methoxypropylsulfonyl)-5-methyl-oxazole-4-carboxamide] |
| 50.1 nM | 200 nM | CSc1ccccc1CN(c1ccc(C#N)cc1)c1nc(C(=O)NS(C)(=O)=O)c(C)s1 [Compound 452, 2-[4-cyano-N-[(2-methylsulfanylphenyl)methyl]anilino]-5-methyl-N-methylsulfonyl-thiazole-4-carboxamide] |
| 398 nM | 1000 nM | CS(=O)(=O)NC(=O)c1csc(N(Cc2ccccc2)c2ccc(C#N)cc2)n1 [Compound 597, 2-(N-benzyl-4-cyano-anilino)-N-methylsulfonyl-thiazole-4-carboxamide] |
| 100 nM | 2510 nM | Cc1oc(N(Cc2ccc(F)cc2)c2ccc(C#N)cc2)nc1C(=O)NS(C)(=O)=O [Compound 610, 2-[4-cyano-N-[(4-fluorophenyl)methyl]anilino]-5-methyl-N-methylsulfonyl-oxazole-4-carboxamide] |
| 63.1 nM | 794 nM | Cc1sc(N(Cc2cc(Cl)ccc2F)c2ccc(C#N)cc2)nc1C(=O)NS(C)(=O)=O [Compound 126, 2-[N-[(5-chloro-2-fluoro-phenyl)methyl]-4-cyano-anilino]-5-methyl-N-methylsulfonyl-thiazole-4-carboxamide] |
| 31.6 nM | 126 nM | CCc1oc(N(Cc2ccc(Cl)c(Cl)c2)c2ccc(C#N)cc2)nc1C(=O)NS(C)(=O)=O [Compound 633, 2-[4-cyano-N-[(3,4-dichlorophenyl)methyl]anilino]-5-ethyl-N-methylsulfonyl-oxazole-4-carboxamide] |
| 316 nM | > 10000 nM | Cc1sc(N(Cc2cc(C(F)(F)F)ccc2Cl)c2ccc(C#N)cc2)nc1C(=O)NS(C)(=O)=O [Compound 417, 2-[N-[[2-chloro-5-(trifluoromethyl)phenyl]methyl]-4-cyano-anilino]-5-methyl-N-methylsulfonyl-thiazole-4-carboxamide] |
| 158 nM | 126 nM | Cc1sc(N(Cc2ccc3c(c2)C(O)CC3)c2ccc(C#N)cc2)nc1C(=O)NS(C)(=O)=O (stereo not drawn) [Compound 484, 2-[4-cyano-N-[(3-hydroxyindan-5-yl)methyl]anilino]-5-methyl-N-methylsulfonyl-thiazole-4-carboxamide] |
| 251 nM | > 10000 nM | Cc1oc(N(Cc2cccc(C#N)c2)c2ccc(C#N)cc2)nc1C(=O)NS(C)(=O)=O [Compound 617, 2-[4-cyano-N-[(3-cyanophenyl)methyl]anilino]-5-methyl-N-methylsulfonyl-oxazole-4-carboxamide] |
| 39.8 nM | 158 nM | CS(=O)(=O)NC(=O)c1nc(N(Cc2ccccc2OC(F)F)c2ccc(C#N)cc2)sc1Br [Example 254, 5-bromo-2-[4-cyano-N-[[2-(difluoromethoxy)phenyl]methyl]anilino]-N-methylsulfonyl-thiazole-4-carboxamide] |
| 31.6 nM | > 10000 nM | Cc1sc(N(Cc2cccc(OCc3ccccc3)c2)c2ccc(C#N)cc2)nc1C(=O)NS(C)(=O)=O [Compound 59, 2-[N-[(3-benzyloxyphenyl)methyl]-4-cyano-anilino]-5-methyl-N-methylsulfonyl-thiazole-4-carboxamide] |
| 50.1 nM | 316 nM | Cc1sc(N(Cc2ccccc2F)c2ccc(C#N)cc2)nc1C(=O)NS(C)(=O)=O [Compound 13, 2-[4-cyano-N-[(2-fluorophenyl)methyl]anilino]-5-methyl-N-methylsulfonyl-thiazole-4-carboxamide] |
| 63.1 nM | 631 nM | Cc1nc(CN(CCc2ccc(Cl)cc2)c2nc(C(=O)NS(C)(=O)=O)c(C)s2)cs1 [Compound 504, 2-[2-(4-chlorophenyl)ethyl-[(2-methylthiazol-4-yl)methyl]amino]-5-methyl-N-methylsulfonyl-thiazole-4-carboxamide] |
| 251 nM | 2000 nM | Cc1oc(N(Cc2ccccc2)c2ccc(C#N)cc2)nc1C(=O)NS(C)(=O)=O [Compound 598, 2-(N-benzyl-4-cyano-anilino)-5-methyl-N-methylsulfonyl-oxazole-4-carboxamide] |
| 79.4 nM | 50.1 nM | COc1ccc(CN(c2ccc(C#N)cc2)c2nc(C(=O)NS(C)(=O)=O)c(Cl)s2)cc1 [Example 271, 5-chloro-2-[4-cyano-N-[(4-methoxyphenyl)methyl]anilino]-N-methylsulfonyl-thiazole-4-carboxamide] |
| 794 nM | 1260 nM | Cc1sc(N(Cc2ncccc2O)c2ccc(C#N)cc2)nc1C(=O)NS(C)(=O)=O [Compound 492, 2-[4-cyano-N-[(3-hydroxyl-pyridyl)methyl]anilino]-5-methyl-N-methylsulfonyl-thiazole-4-carboxamide] |
| 398 nM | 2510 nM | Cc1sc(N(CCc2ccccc2)c2ccc(C#N)cc2)nc1C(=O)NS(C)(=O)=O [Compound 52, 2-[4-cyano-N-(2-phenylethyl)anilino]-5-methyl-N-methylsulfonyl-thiazole-4-carboxamide] |
| 50.1 nM | 31.6 nM | CS(=O)(=O)NC(=O)c1nc(N(Cc2ccccc2)c2ccc(C#N)cc2)sc1Br [Compound 603, 2-(N-benzyl-4-cyano-anilino)-5-bromo-N-methylsulfonyl-thiazole-4-carboxamide] |
| 39.8 nM | > 10000 nM | Cc1sc(N(Cc2ccc(OC(F)(F)F)cc2)c2ccc(C#N)cc2)nc1C(=O)NS(=O)(=O)CS(C)(=O)=O [Example 198, 2-[4-cyano-N-[[4-(trifluoromethoxy)phenyl]methyl]anilino]-5-methyl-N-(methylsulfonylmethylsulfonyl)thiazole-4-carboxamide] |
| 25.1 nM | 50.1 nM | Cc1sc(N(Cc2cccc3ccsc23)c2ccc(C#N)cc2)nc1C(=O)NS(C)(=O)=O [Compound 378, 2-[N-(benzothiophen-7-ylmethyl)-4-cyano-anilino]-5-methyl-N-methylsulfonyl-thiazole-4-carboxamide] |
| 100 nM | 1000 nM | Cc1sc(N(Cc2ccc(OC(F)(F)F)cc2)c2ccc(C(F)(F)F)nc2)nc1C(=O)NS(C)(=O)=O [Compound 471, 5-methyl-N-methylsulfonyl-2-[[4-(trifluoromethoxy)phenyl]methyl-[6-(trifluoromethyl)-3-pyridyl]amino]thiazole-4-carboxamide] |
| 63.1 nM | 2000 nM | COCCCS(=O)(=O)NC(=O)c1nc(N(CCc2ccc(OC(F)(F)F)cc2)Cc2ccc(C(F)(F)F)nc2)oc1C [Compound 565, N-(3-methoxypropylsulfonyl)-5-methyl-2-[2-[4-(trifluoromethoxy)phenyl]ethyl-[[6-(trifluoromethyl)-3-pyridyl]methyl]amino]oxazole-4-carboxamide] |
| 25.1 nM | 158 nM | Cc1sc(N(Cc2ccc(SC(F)(F)F)cc2)c2ccc(C#N)cc2)nc1C(=O)NS(C)(=O)=O [Compound 113, 2-[4-cyano-N-[[4-(trifluoromethylsulfanyl)phenyl]methyl]anilino]-5-methyl-N-methylsulfonyl-thiazole-4-carboxamide] |
| 63.1 nM | 501 nM | Cc1sc(N(Cc2ccc(F)cc2OC(F)F)c2ccc(C#N)cc2)nc1C(=O)NS(C)(=O)=O [Example 176, 2-[4-cyano-N-[[2-(difluoromethoxy)-4-fluoro-phenyl]methyl]anilino]-5-methyl-N-methylsulfonyl-thiazole-4-carboxamide] |
